Measured values reported in patent US20200181117A1, “SUBSTITUTED 3-HETEROARYLOXY-1H-PYRAZOLES AND SALTS THEREOF AND THEIR USE AS HERBICIDAL ACTIVE SUBSTANCES” (BAYER CROPSCIENCE AKTIENGESELLSCHAFT, priority 2017, published 2020).

Tests used:
Format in all cases: in vivo
Polygonum convolvulus [1] = test: Pre-emergence herbicidal action; conditions: 1280 g/ha, scored visually after about 3 weeks vs untreated controls
Description: (§1) Pre-Emergence Herbicidal Action and Crop Plant Compatibility Seeds of monocotyledonous and dicotyledonous weed plants and crop plants were placed in plastic or wood fiber pots and covered with soil. The compounds of the invention, formulated in the form of wettable powders (WP) or as emulsion concentrates (EC), were then applied onto the surface of the covering soil as aqueous suspension or emulsion with addition of 0.5% additive at a water application rate of 600 l/ha (converted). After the treatment, the pots were placed in a greenhouse and kept under good growth conditions for the test plants. After about 3 weeks, the effect of the preparations was scored visually in comparison with untreated controls as percentages. For example, 100% activity=the plants have died, 0% activity=like control plants. Tables C1 to C14 below show the effects of selected compounds of the general formula (I) according to Table I on various harmful plants and an application rate corresponding to 1280 g/ha, which were obtained by the experimental procedure mentioned above.

Matricaria inodora = test: Pre-emergence herbicidal action; conditions: 1280 g/ha, scored visually after about 3 weeks vs untreated controls
Description: as §1

Setaria viridis [2] = test: Pre-emergence herbicidal action; conditions: 1280 g/ha, scored visually after about 3 weeks vs untreated controls
Description: as §1

Abutilon theophrasti [3] = test: Pre-emergence herbicidal action; conditions: 1280 g/ha, scored visually after about 3 weeks vs untreated controls
Description: as §1

Echinochloa crus-galli = test: Pre-emergence herbicidal action; conditions: 1280 g/ha, scored visually after about 3 weeks vs untreated controls
Description: as §1

Alopecurus myosuroides [4] = test: Pre-emergence herbicidal action; conditions: 1280 g/ha, scored visually after about 3 weeks vs untreated controls
Description: as §1

Veronica persica = test: Pre-emergence herbicidal action; conditions: 1280 g/ha, scored visually after about 3 weeks vs untreated controls
Description: as §1

Lolium rigidum = test: Pre-emergence herbicidal action; conditions: 1280 g/ha, scored visually after about 3 weeks vs untreated controls
Description: as §1

Amaranthus retroflexus [5] = test: Pre-emergence herbicidal action; conditions: 1280 g/ha, scored visually after about 3 weeks vs untreated controls
Description: as §1

Stellaria media [6] = test: Pre-emergence herbicidal action; conditions: 1280 g/ha, scored visually after about 3 weeks vs untreated controls
Description: as §1

Viola tricolor [7] = test: Pre-emergence herbicidal action; conditions: 1280 g/ha, scored visually after about 3 weeks vs untreated controls
Description: as §1

Polygonum convolvulus [8] = test: Post-emergence herbicidal action; conditions: 1280 g/ha, rated visually after about 3 weeks vs untreated controls
Procedure: (§2) A. Post-Emergence Herbicidal Action and Crop Plant Compatibility Seeds of monocotyledonous and dicotyledonous weeds and crop plants were placed in sandy loam in plastic or wood-fiber pots, covered with soil and cultivated in a greenhouse under controlled growth conditions. 2 to 3 weeks after sowing, the test plants were treated at the one-leaf stage. The compounds of the invention, formulated in the form of wettable powders (WP) or as emulsion concentrates (EC), were then sprayed onto the green parts of the plants as aqueous suspension or emulsion with addition of 0.5% additive at a water application rate of 600 l/ha (converted). After the test plants had been kept in the greenhouse under optimum growth conditions for about 3 weeks, the activity of the preparations was rated visually in comparison to untreated controls. For example, 100% activity=the plants have died, 0% activity=like control plants. Tables B1 to B15 below show the effects of selected compounds of the general formula (I) according to Table I on various harmful plants and an application rate corresponding to 1280 g/ha, which were obtained by the experimental procedure mentioned above.

Setaria viridis [9] = test: Post-emergence herbicidal action; conditions: 1280 g/ha, rated visually after about 3 weeks vs untreated controls
Procedure: as §2

Abutilon theophrasti [10] = test: Post-emergence herbicidal action; conditions: 1280 g/ha, rated visually after about 3 weeks vs untreated controls
Procedure: as §2

Amaranthus retroflexus [11] = test: Post-emergence herbicidal action; conditions: 1280 g/ha, rated visually after about 3 weeks vs untreated controls
Procedure: as §2

Stellaria media [12] = test: Post-emergence herbicidal action; conditions: 1280 g/ha, rated visually after about 3 weeks vs untreated controls
Procedure: as §2

Viola tricolor [13] = test: Post-emergence herbicidal action; conditions: 1280 g/ha, rated visually after about 3 weeks vs untreated controls
Procedure: as §2

Pharbitis purpurea = test: Post-emergence herbicidal action; conditions: 1280 g/ha, rated visually after about 3 weeks vs untreated controls
Procedure: as §2

Avena fatua = test: Pre-emergence herbicidal action; conditions: 1280 g/ha, scored visually after about 3 weeks vs untreated controls
Description: as §1

Hordeum murinum = test: Pre-emergence herbicidal action; conditions: 1280 g/ha, scored visually after about 3 weeks vs untreated controls
Description: as §1

Alopecurus myosuroides [14] = test: Post-emergence herbicidal action; conditions: 1280 g/ha, rated visually after about 3 weeks vs untreated controls
Procedure: as §2

| Compound | herbicidal activity on Polygonum convolvulus (Polygonum convolvulus [1]) [%] | herbicidal activity on Matricaria inodora (Matricaria inodora) [%] | herbicidal activity on Setaria viridis (Setaria viridis [2]) [%] | herbicidal activity on Abutilon theophrasti (Abutilon theophrasti [3]) [%] | herbicidal activity on Echinochloa crus-galli (Echinochloa crus-galli) [%] | herbicidal activity on Alopecurus myosuroides (Alopecurus myosuroides [4]) [%] | herbicidal activity on Veronica persica (Veronica persica) [%] | herbicidal activity on Amaranthus retroflexus (Amaranthus retroflexus [5]) [%] | herbicidal activity on Stellaria media (Stellaria media [6]) [%] | herbicidal activity on Viola tricolor (Viola tricolor [7]) [%] | herbicidal activity on Polygonum convolvulus (Polygonum convolvulus [8]) [%] | herbicidal activity on Abutilon theophrasti (Abutilon theophrasti [10]) [%] | herbicidal activity on Amaranthus retroflexus (Amaranthus retroflexus [11]) [%] | herbicidal activity on Viola tricolor (Viola tricolor [13]) [%] | further results |
| --- | --- | --- | --- | --- | --- | --- | --- | --- | --- | --- | --- | --- | --- | --- | --- |
| Cc1c(Sc2ccc(F)cc2F)c(Oc2ncc(F)cn2)nn1C [Example I-115] | 90 | 90 | 100 | 100 | 100 | 90 | 100 | 100 | 90 | 100 | 90 | 100 | 100 | 100 | herbicidal activity on Lolium rigidum (Lolium rigidum): 80%; herbicidal activity on Setaria viridis (Setaria viridis [9]): 100%; herbicidal activity on Stellaria media (Stellaria media [12]): 100% |
| COc1cnc(Oc2nn(C)c(C)c2Sc2ccc(F)cc2Cl)nc1 [Example I-156] | 100 | 100 | 100 | 90 | 80 |  |  | 100 | 100 | 100 | 80 |  | 100 | 100 |  |
| CCc1c(Sc2cccc(F)c2)c(Oc2ncc(F)cn2)nn1C [Example I-203] | 80 | 80 | 100 | 90 | 80 | 90 | 100 | 100 | 80 | 90 |  | 100 | 100 | 100 | herbicidal activity on Setaria viridis (Setaria viridis [9]): 90%; herbicidal activity on Stellaria media (Stellaria media [12]): 90%; herbicidal activity on Pharbitis purpurea (Pharbitis purpurea): 90% |
| CCc1c(Sc2ccc(F)cc2)c(Oc2ncccn2)nn1C [Example I-064] | 100 | 90 | 100 | 100 | 90 | 90 | 100 | 100 | 100 | 100 | 100 | 80 | 100 | 100 | herbicidal activity on Setaria viridis (Setaria viridis [9]): 100%; herbicidal activity on Stellaria media (Stellaria media [12]): 100% |
| CCn1cc(Sc2ccc(F)cc2)c(Oc2ncc(Cl)cn2)n1 [Example I-121] | 90 |  | 90 |  |  |  | 100 | 100 | 80 | 100 | 80 |  | 80 | 80 |  |
| CCn1cc(Sc2ccc(Cl)cc2)c(Oc2ncc(F)cn2)n1 [Example I-160] | 80 |  |  |  |  |  | 100 |  |  | 100 |  |  |  | 100 |  |
| CC(C)n1cc(Sc2ccc(F)cc2)c(Oc2ncccn2)n1 [Example I-039] | 90 | 90 | 90 | 100 |  | 100 | 100 | 100 | 100 | 100 |  |  |  | 100 | herbicidal activity on Avena fatua (Avena fatua): 90% |
| Cc1ccnc(Oc2nn(C)c(C)c2Sc2cccc(Cl)c2)n1 [Example I-096] | 100 | 100 | 100 | 100 | 80 | 100 | 100 | 100 | 90 | 100 |  | 80 |  |  |  |
| CCc1c(Sc2ccccc2)c(Oc2ncccn2)nn1C [Example I-063] | 100 | 100 | 100 | 100 | 100 | 100 |  | 100 | 90 | 100 |  | 100 | 100 | 100 | herbicidal activity on Hordeum murinum (Hordeum murinum): 100%; herbicidal activity on Avena fatua (Avena fatua): 100%; herbicidal activity on Setaria viridis (Setaria viridis [9]): 80%; herbicidal activity on Alopecurus myosuroides (Alopecurus myosuroides [14]): 100% |
| Cn1cc(Sc2ccc(Cl)cc2)c(Oc2cnc(Cl)nc2)n1 [Example I-230] |  |  |  |  |  |  |  |  |  |  |  |  |  | 80 |  |
| CCn1cc(Sc2ccccc2)c(Oc2ncc(Cl)cn2)n1 [Example I-138] | 80 |  | 100 | 80 |  |  | 100 |  |  | 90 |  |  |  | 80 |  |
| CCn1cc(Sc2ccccc2)c(Oc2ncccn2)n1 [Example I-042] |  | 90 | 80 |  |  |  | 100 | 80 | 100 | 90 | 80 |  |  |  |  |
| CCc1c(Sc2cccc(Cl)c2)c(Oc2ncccn2)nn1C [Example I-035] |  |  | 90 |  |  |  |  | 90 |  | 100 | 100 | 100 |  | 100 | herbicidal activity on Stellaria media (Stellaria media [12]): 80% |
| CCc1c(Sc2cccc(Cl)c2)c(Oc2ncc(F)cn2)nn1C [Example I-034] |  |  | 100 | 80 |  |  |  | 100 | 90 | 100 |  | 80 | 100 | 100 | herbicidal activity on Pharbitis purpurea (Pharbitis purpurea): 90% |
